Measurements as given in paper PMC7997572 (2020).

Tests used:
Assay in all cases: CD melting
[1] = tested on: Hairpin (DNA, hairpin) CGAATTCGTTTTCGAATTCG; settings: K+ (20 mM potassium phosphate, 5 mM KCl; Table S1 note: 5 mM phosphate, 20 mM KCl); pH 7.0; 300 μM compound (10 equiv), 30 μM DNA
[2] = tested on: c-Myc (DNA, G4) TGAGGGTGGGTAGGGTGGGTAA; settings: K+ (20 mM potassium phosphate, 5 mM KCl; Table S1 note: 5 mM phosphate, 20 mM KCl), pH 7.0, 150 μM compound (10 equiv), 15 μM DNA
[3] = tested on: Tel23-h (DNA, G4) TTAGGGTTAGGGTTAGGGTTAGGGTT; settings: K+ (20 mM potassium phosphate, 5 mM KCl; Table S1 note: 5 mM phosphate, 20 mM KCl); pH 7.0; 150 μM compound (10 equiv), 15 μM DNA
[4] = tested on: Tel23-p (DNA, G4) TTAGGGTTAGGGTTAGGGTTAGGGTT; settings: K+ (20 mM potassium phosphate, 5 mM KCl; Table S1 note: 5 mM phosphate, 20 mM KCl); pH 7.0; 150 μM compound (10 equiv), 15 μM DNA
[5] = tested on: c-Kit1 (DNA, G4) AGGGAGGGCGCTGGGAGGAGGG; settings: K+ (20 mM potassium phosphate, 5 mM KCl; Table S1 note: 5 mM phosphate, 20 mM KCl); pH 7.0; 150 μM compound (10 equiv), 15 μM DNA
[6] = tested on: c-Kit2 (DNA, G4) CGGGCGGGCGCTAGGGAGGGT; settings: K+ (20 mM potassium phosphate, 5 mM KCl; Table S1 note: 5 mM phosphate, 20 mM KCl); pH 7.0; 150 μM compound (10 equiv), 15 μM DNA

ΔTm [1] [°C]	ΔTm [3] [°C]	ΔTm [5] [°C]	SMILES	further results
0.0 ± 1.0			NC(N)=N/N=C/c1c(Cl)n(C/C=C/c2ccccc2)c2ccccc12	
			O=C1Nc2ccc(Cl)cc2/C1=C\c1cccc(/C=N/NC2=NCCN2)c1	ΔTm [2]: 14.1 ± 1.0 °C
	1.0 ± 1.0	1.5 ± 1.0	CC(C)(C)c1cc(/C=N/NC(=N)N)c(O)c(/C=C2/C(=O)Nc3c2ccc2ccccc32)c1	ΔTm [4]: 27.0 ± 1.0 °C
		14.5 ± 1.0	O=C1Nc2c(ccc3ccccc23)/C1=C\c1cccc(/C=N/NC2=NCCN2)c1	ΔTm [6]: 26.0 ± 1.0 °C; ΔTm ([2]; exact value not determinable): > 22 °C
7.0 ± 1.0			COc1cc2c(/C=N/NC(=N)N)c(Cl)n(C)c2cc1C	
	10.0 ± 1.0		Cc1cc2c(cc1O)/C(=C\c1cccc(/C=N/NC(=N)N)c1)C(=O)N2	
